From patent US9315458B2, “Nitrogen-containing heterocyclic compound” (Takeda Pharmaceutical Company Limited, priority 2014, dated 2016) come the findings set out here.

The target in this test is T1, human M1 receptor (hCHRM1) (Homo sapiens, UniProt P11229).
T1 construct: expressed in transfected cells
T1 sequence (P11229 1-460): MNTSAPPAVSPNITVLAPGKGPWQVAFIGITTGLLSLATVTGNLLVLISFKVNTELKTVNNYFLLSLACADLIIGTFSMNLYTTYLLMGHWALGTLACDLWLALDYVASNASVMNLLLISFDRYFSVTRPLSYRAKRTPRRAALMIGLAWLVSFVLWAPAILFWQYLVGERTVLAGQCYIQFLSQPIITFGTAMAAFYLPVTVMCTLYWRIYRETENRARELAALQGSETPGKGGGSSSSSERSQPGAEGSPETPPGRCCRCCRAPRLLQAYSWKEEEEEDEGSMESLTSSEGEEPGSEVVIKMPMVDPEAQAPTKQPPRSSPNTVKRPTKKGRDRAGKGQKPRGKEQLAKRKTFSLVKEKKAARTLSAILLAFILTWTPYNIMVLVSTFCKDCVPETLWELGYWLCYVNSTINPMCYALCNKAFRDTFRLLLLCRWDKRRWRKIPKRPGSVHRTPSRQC
Nature of the test: Measurement of M1 receptor positive allosteric modulator (M1PAM) activity, calcium fluorescence (FLIPRtetra) with acetylcholine at EC20. The format is cell-based. The note with it: for activity (%) at 10 μM: 10 μM test compound, 100% = acetylcholine 1 μM, 0% = DMSO, acetylcholine at EC20; for EC50: inflection point of concentration-dependent curve, CHO-K1 cells expressing hCHRM1, acetylcholine at EC20 (final 0.6-0.8 nM), read-out: IP value. In short, it runs like this:
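CHO-K1 cells stably expressing hCHRM1, Fluo-4 AM loaded; compound added with acetylcholine at EC20 (final 0.6-0.8 nM), fluorescence read 1 min. Activity normalised to 1 μM acetylcholine (100%) and DMSO (0%); IP values taken as inflection point of the concentration-response curve.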

In the case of `COc1ccc(Cc2cc3c(c(C)c2C)CN([C@H]2COCC[C@@H]2O)C3=O)cc1C` [Example 160, 2-[(3S,4S)-4-hydroxytetrahydro-2H-pyran-3-yl]-6-(4-methoxy-3-methylbenzyl)-4,5-dimethyl-2,3-dihydro-1H-isoindol-1-one], the “activity (%) at 10 μM” value was found to be 112% and the EC50 was 47 nM.

For the molecule `Cc1cc2c(cc1Cc1ccc(-c3cn(C)nn3)cc1)C(=O)N([C@H]1CCC[C@@H]1O)C2` (racemic) [Example 48, rac-2-(trans-2-hydroxycyclopentyl)-5-methyl-6-(4-(1-methyl-1H-1,2,3-triazol-4-yl)benzyl)isoindolin-1-one], the “activity (%) at 10 μM” value is on record as 102% and the EC50 was 31 nM.

`Cc1cc(-c2ccc(Cc3cc4c(cc3C)CN([C@H]3CCCC[C@@H]3O)C4=O)cc2)ccn1` (racemic) [Example 99, rac-2-(trans-2-hydroxycyclohexyl)-5-methyl-6-(4-(2-methylpyridin-4-yl)benzyl)isoindolin-1-one]: the “activity (%) at 10 μM” value is listed as 103% and the EC50 was determined as 16 nM.

Turning to `Cc1cc2c(cc1Cc1ccc(-c3cn(C)nn3)cc1F)C(=O)N([C@H]1CCC[C@@H]1O)C2` (racemic) [Example 53, rac-6-(2-fluoro-4-(1-methyl-1H-1,2,3-triazol-4-yl)benzyl)-2-(trans-2-hydroxycyclopentyl)-5-methylisoindolin-1-one], the “activity (%) at 10 μM” value is 103% and the EC50 turned out to be 28 nM.

With `Cc1c(Cc2ccc(-c3ccn(C)n3)cc2)cc2c(c1F)CN([C@H]1COCC[C@@H]1O)C2=O` [Example 140, 4-fluoro-2-[(3S,4S)-4-hydroxytetrahydro-2H-pyran-3-yl]-5-methyl-6-[4-(1-methyl-1H-pyrazol-3-yl)benzyl]-2,3-dihydro-1H-isoindol-1-one], the “activity (%) at 10 μM” value stood at 93% and the EC50 worked out at 2 nM.

Turning to `Cc1c(Cc2ccc(C#N)cc2F)cc2c(c1C)CN([C@H]1CCC[C@@H]1O)C2=O` [Example 125, 3-fluoro-4-((2-((1S,2S)-2-hydroxycyclopentyl)-6,7-dimethyl-3-oxo-2,3-dihydro-1H-isoindol-5-yl)benzyl)benzonitrile], the “activity (%) at 10 μM” value is on record as 93% and the EC50 stood at 73 nM.

Consider `Cc1c(Cc2ccc(-n3cccn3)cc2F)cc2c(c1C)CN(C[C@@H]1CCCO1)C2=O` [Example 115, 6-(2-fluoro-4-(1H-pyrazol-1-yl)benzyl)-4,5-dimethyl-2-((2S)-tetrahydrofuran-2-ylmethyl)isoindolin-2-one], for which the “activity (%) at 10 μM” value is 92% and the EC50 turned out to be 25 nM.

Turning to `Cc1c(Cc2ccc(-c3ccn(C)n3)cc2)cc2c(c1C)CN(CC(C)(C)O)C2=O` [Example 114, 2-(2-hydroxy-2-methylpropyl)-4,5-dimethyl-6-(4-(1-methyl-1H-pyrazol-3-yl)benzyl)isoindolin-1-one], the “activity (%) at 10 μM” value amounted to 96% and the EC50 was found to be 15 nM.

On to `Cc1c(Cc2ccc(-n3cccn3)cc2)cc2c(c1Cl)CN([C@H]1CCC[C@@H]1O)C2=O` (racemic) [Example 102, rac-4-chloro-2-(trans-2-hydroxycyclopentyl)-5-methyl-6-(4-(1H-pyrazol-1-yl)benzyl)isoindolin-1-one], for which the “activity (%) at 10 μM” value was 91% and the EC50 turned out to be 13 nM.

Take `Cc1c(Cc2ccc(-n3cccn3)cc2)cc2c(c1Cl)CN(CC(C)(C)O)C2=O` [Example 132, 4-chloro-2-(2-hydroxy-2-methylpropyl)-5-methyl-6-(4-(1H-pyrazol-1-yl)benzyl)isoindolin-1-one]: the “activity (%) at 10 μM” value was found to be 87% and the EC50 came out at 7.3 nM.

`CCc1cc2c(cc1Cc1ccc(OC)cc1)C(=O)N([C@H]1COCC[C@@H]1O)C2` [Example 148, 5-ethyl-2-[(3S,4S)-4-hydroxytetrahydro-2H-pyran-3-yl]-6-(4-methoxybenzyl)-2,3-dihydro-1H-isoindol-1-one]: the “activity (%) at 10 μM” value was 89% and the EC50 is 63 nM.

For `Cc1c(Cc2ccc(-n3cccn3)cc2)cc2c(c1C)CN(c1ncc(Cl)cc1F)C2=O` [Example 162, 2-(5-chloro-3-fluoropyridin-2-yl)-4,5-dimethyl-6-(4-(1H-pyrazol-1-yl)benzyl)isoindolin-1-one], the “activity (%) at 10 μM” value came out at 95% and the EC50 is 66 nM.

In the case of `Cc1c(Cc2ccc(-n3cccn3)cc2)cc2c(c1Cl)CN([C@H]1COCC[C@@H]1O)C2=O` [Example 130, 4-chloro-2-[(3S,4S)-4-hydroxytetrahydro-2H-pyran-3-yl]-5-methyl-6-[4-(1H-pyrazol-1-yl)benzyl]-2,3-dihydro-1H-isoindol-1-one], the “activity (%) at 10 μM” value worked out at 94% and the EC50 was found to be 2.2 nM.

Take `Cc1c(Cc2ccc(-n3cccn3)cc2)cc2c(c1F)CN([C@H]1CCC[C@@H]1O)C2=O` (racemic) [Example 79, rac-4-fluoro-2-(trans-2-hydroxycyclopentyl)-5-methyl-6-(4-(1H-pyrazol-1-yl)benzyl)isoindolin-1-one]: the “activity (%) at 10 μM” value is recorded as 93% and the EC50 came to 72 nM.

On to `Cc1c(Cc2ccc(-c3ccn(C)n3)cc2)cc2c(c1C)CN([C@H]1CCC[C@@H]1O)C2=O` [Example 13, 2-((1S,2S)-2-hydroxycyclopentyl)-4,5-dimethyl-6-(4-(1-methyl-1H-pyrazol-3-yl)benzyl)isoindolin-1-one], for which the “activity (%) at 10 μM” value came out at 104% and the EC50 came to 7.9 nM.

As to `Cc1c(Cc2ccc(C#N)cc2)cc2c(c1C)CN([C@H]1CCCC[C@@H]1O)C2=O` [Example 155, 4-((2-((1S,2S)-2-hydroxycyclohexyl)-6,7-dimethyl-3-oxo-2,3-dihydro-1H-isoindol-5-yl)methyl)benzonitrile], the “activity (%) at 10 μM” value is recorded as 100% and the EC50 was 7.1 nM.

For `COc1ccc(Cc2cc3c(c(F)c2C)CN([C@H]2COCC[C@@H]2O)C3=O)cc1` [Example 150, 4-fluoro-2-[(3S,4S)-4-hydroxytetrahydro-2H-pyran-3-yl]-6-(4-methoxybenzyl)-5-methyl-2,3-dihydro-1H-isoindol-1-one], the “activity (%) at 10 μM” value is recorded as 89% and the EC50 was determined as 14 nM.

Regarding `COc1ccc(Cc2cc3c(c(C)c2C)CN([C@H]2COCC[C@@H]2O)C3=O)cc1F` [Example 158, 6-(3-fluoro-4-methoxybenzyl)-2-[(3S,4S)-4-hydroxytetrahydro-2H-pyran-3-yl]-4,5-dimethyl-2,3-dihydro-1H-isoindol-1-one], the “activity (%) at 10 μM” value was 111% and the EC50 was determined as 28 nM.

As to `CCc1cc2c(cc1Cc1ccc(-n3cccn3)cc1)C(=O)N(CC(C)(C)O)C2` [Example 129, 5-ethyl-2-(2-hydroxy-2-methylpropyl)-6-(4-(1H-pyrazol-1-yl)benzyl)isoindolin-1-one], the “activity (%) at 10 μM” value stood at 100% and the EC50 was 53 nM.

Consider `Cc1c(Cc2ccc(-n3cccn3)cc2F)cc2c(c1C)CN(CC(C)(C)O)C2=O` [Example 121, 6-(2-fluoro-4-(1H-pyrazol-1-yl)benzyl)-2-(2-hydroxy-2-methylpropyl)-4,5-dimethylisoindolin-1-one], for which the “activity (%) at 10 μM” value was 89% and the EC50 worked out at 22 nM.

As for `CCc1cc2c(cc1Cc1ccc(-c3ccn(C)n3)cc1)C(=O)N([C@H]1COCC[C@@H]1O)C2` [Example 116, 5-ethyl-2-[(3S,4S)-4-hydroxytetrahydro-2H-pyran-3-yl]-6-[4-(1-methyl-1H-pyrazol-3-yl)benzyl]-2,3-dihydro-1H-isoindol-1-one], the “activity (%) at 10 μM” value is recorded as 111% and the EC50 amounted to 6.1 nM.

For `O=C1c2cc(Cc3ccc(-n4cccn4)cc3)c(C(F)(F)F)c(Cl)c2CN1[C@H]1CCC[C@@H]1O` (racemic) [Example 88, rac-4-chloro-2-(trans-2-hydroxycyclopentyl)-6-(4-(1H-pyrazol-1-yl)benzyl)-5-(trifluoromethyl)isoindolin-1-one], the “activity (%) at 10 μM” value is 98% and the EC50 amounted to 85 nM.

As to `COc1ccc(Cc2cc3c(c(F)c2OC)CN([C@H]2CCCC[C@@H]2O)C3=O)cc1` [Example 161, 4-fluoro-2-((1S,2S)-2-hydroxycyclohexyl)-5-methoxy-6-(4-methoxybenzyl)isoindol-1-one], the “activity (%) at 10 μM” value is reported as 94% and the EC50 is 32 nM.

As for `Cc1cc(-c2ccc(Cc3cc4c(cc3C)CN([C@H]3CCCC[C@@H]3O)C4=O)cn2)ccn1` (racemic) [Example 6, rac-2-(trans-2-hydroxycyclohexyl)-5-methyl-6-((2′-methyl-2,4′-bipyridin-5-yl)methyl)isoindolin-1-one], the “activity (%) at 10 μM” value is on record as 101% and the EC50 came out at 5.3 nM.

In the case of `Cc1c(Cc2ccc(-n3cccn3)cc2)cc2c(c1C)CN(c1ncccc1F)C2=O` [Example 153, 2-(3-fluoropyridin-2-yl)-4,5-dimethyl-6-(4-(1H-pyrazol-1-yl)benzyl)isoindolin-1-one], the “activity (%) at 10 μM” value was determined as 92% and the EC50 is 57 nM.
